From article PMC6627698, “Redesigning Arenicin-1, an Antimicrobial Peptide from the Marine Polychaeta Arenicola marina, by Strand Rearrangement or Branching, Substitution of Specific Residues, and Backbone Linearization or Cyclization” (Marine Drugs, 2019)
Residues, ends and D or L forms follow the SMILES beside them.

Columns and labels:
[1] = tested on: E. coli ATCC 25922; type: cell-based, Escherichia coli; details: ATCC 25922, 18 h
Procedure, shortened: (§1)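 Minimal inhibitory concentration is read by CLSI broth microdilution, with peptides acting in a 1:1 mix of Mueller Hinton broth and PBS. The inoculum is mid-logarithmic bacteria at roughly 2 × 10^5 CFU/mL before mixing, in BSA-blocked wells.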

[2] = tested on: E. coli M15; type: cell-based, Escherichia coli; details: M15, 18 h
Procedure, shortened: as §1

[3] = tested on: Escherichia coli ML35p; type: cell-based; details: broth microdilution, 50% Mueller Hinton broth / 50% PBS, 18 h at 37 °C, median of 3–5 experiments in triplicates
Procedure, shortened: as §1

[4] = tested on: Listeria monocytogenes EGD; type: cell-based; details: 18 h
Procedure, shortened: as §1

[5] = tested on: Pseudomonas aeruginosa ATCC 27853; type: cell-based; details: ATCC 27853, 18 h
Procedure, shortened: as §1

[6] = tested on: Staphylococcus aureus 710A; type: cell-based; details: 18 h
Procedure, shortened: as §1

[7] = tested on: MRSA ATCC 33591; type: cell-based, Staphylococcus aureus; details: ATCC 33591, 18 h
Procedure, shortened: as §1

[8] = tested on: S. aureus ATCC 25923; type: cell-based, Staphylococcus aureus; details: ATCC 25923, 18 h
Procedure, shortened: as §1

[9] = tested on: S. aureus c.i.; type: cell-based, Staphylococcus aureus; details: 18 h
Procedure, shortened: as §1

[10] = tested on: P. aeruginosa c.i.; type: cell-based, Pseudomonas aeruginosa; details: 18 h
Procedure, shortened: as §1

[11] = tested on: Acinetobacter baumanii c.i.; type: cell-based, Acinetobacter baumannii; details: 18 h
Procedure, shortened: as §1

[12] = tested on: Staphylococcus intermidius; type: cell-based, Staphylococcus intermedius; details: 18 h
Procedure, shortened: as §1

[13] = tested on: set of Gram-negative and Gram-positive bacteria, including drug-resistant clinical isolates; type: cell-based; details: 12 strains; median MICs used; MIC > 16 µM taken as 32 µM
[14] = tested on: human erythroleukemia K-562 cells; type: cell-based; details: 24 h
Procedure, shortened: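 MTT cytotoxicity in K-562 cells, 10^5 cells/well in serum-free RPMI 1640, exposed to serial peptide dilutions for 24 h at 37 °C, 5% CO2. OD540 read (690 nm background subtracted); IC50 by nonlinear regression of dose–response curves.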

[15] = tested on: E. coli ML35p outer membrane; assay: Outer membrane permeabilization assay (nitrocefin hydrolysis); type: cell-based, Escherichia coli; details: peptide at 2 × MIC, 10 mM sodium phosphate buffer, 100 mM NaCl, pH 7.4, 37 °C, 486 nm
Experimental: Figure 5 Permeabilizing effect of arenicin-1 variants on E. coli ML35p outer and cytoplasmic membranes.
The E. coli ML35p outer membrane permeability was assessed by monitoring hydrolysis of the chromogenic β-lactamase substrate nitrocefin (3-(2,4-dinitrostyryl)-(6R,7R)-7-(2-thienyl acetamido)ceph-3-em-4-carboxylic acid) (Calbiochem-Novabiochem, San-Diego, CA, USA) by detection of the hydrolysis product at 486 nm. Inner membrane permeability was monitored by measuring the hydrolysis of o-nitrophenyl-β-D-galactoside (ONPG, Sigma, La Jolla, CA, USA) at 420 nm. The E. coli ML35p strain expresses a plasmid-encoded periplasmic β-lactamase; it constitutively expresses cytoplasmic β-galactosidase and lacks lactose permease. E. coli ML35p was maintained on trypticase soy agar plates containing […] of ampicillin per mL. The bacteria used for antimicrobial testing or membrane permeability assays were picked from a single colony, incubated in 50 mL of sterile Trypticase soy broth for 16 h at 37 °C, washed three times with 10 mM sodium phosphate buffer (pH 7.4), adjusted to an optical density at 620 nm of 1 (2.5 × 10^8 CFU/mL), and kept on ice until use. The assays were performed in 96-well microtiter plates that were monitored every minute with a SpectraMax 250 Microplate Spectrophotometer (Molecular Devices, Sunnyvale, CA, USA) using the SOFTmax PRO software supplied by the manufacturer. […]

SMILES	Minimal Inhibitory Concentrations (MIC) [1] [µM]	Minimal Inhibitory Concentrations (MIC) [2] [µM]	Minimal Inhibitory Concentrations (MIC) [3] [µM]	Minimal Inhibitory Concentrations (MIC) [4] [µM]	Minimal Inhibitory Concentrations (MIC) [5] [µM]	Minimal Inhibitory Concentrations (MIC) [6] [µM]	Minimal Inhibitory Concentrations (MIC) [7] [µM]	Minimal Inhibitory Concentrations (MIC) [8] [µM]	Minimal Inhibitory Concentrations (MIC) [9] [µM]	Minimal Inhibitory Concentrations (MIC) [10] [µM]	Minimal Inhibitory Concentrations (MIC) [11] [µM]	Minimal Inhibitory Concentrations (MIC) [12] [µM]	G-MIC (geometric mean of all determined MICs) [13] [µM]	IC50 [14] [µM]	Capacity to permeabilize the outer membrane with respect to arenicin-1 [15]
CC(C)C[C@@H]1NC(=O)[C@H](C(C)C)NC(=O)CNC(=O)[C@H](CCCCN)NC(=O)[C@H](C(C)C)NC(=O)[C@H](CCCCN)NC(=O)[C@H](C(C)C)NC(=O)[C@H](Cc2ccc(O)cc2)NC(=O)[C@H](C)NC(=O)[C@H](Cc2ccc(O)cc2)NC(=O)[C@H](C(C)C)NC(=O)[C@@H](NC(=O)[C@H](Cc2c[nH]c3ccccc23)NC(=O)[C@@H](N)CCCCN)CSSC[C@@H](C(=O)N[C@@H](Cc2c[nH]c3ccccc23)C(=O)O)NC(=O)[C@H](CCCCN)NC(=O)[C@H](CCCCN)NC(=O)[C@H](Cc2ccc(O)cc2)NC(=O)[C@H](CCCCN)NC(=O)[C@H](C(C)C)NC1=O [AR-K] (HELM PEPTIDE1{K.W.C.V.Y.A.Y.V.K.V.K.G.V.L.V.K.Y.K.K.C.W}$PEPTIDE1,PEPTIDE1,3:R3-20:R3$$$V2.0; N-terminus assumed)	2	1	1	2	1 to 2	2	2	2	4	2 to 4	1	4	1.9	7.7	improved capacity to permeabilize the outer membrane
CC(C)C[C@@H]1NC(=O)[C@H](C(C)C)NC(=O)CNC(=O)[C@H](CCCNC(=N)N)NC(=O)[C@H](C(C)C)NC(=O)[C@H](CCCNC(=N)N)NC(=O)[C@H](C(C)C)NC(=O)[C@H](Cc2ccc(O)cc2)NC(=O)[C@H](C)NC(=O)[C@H](Cc2ccc(O)cc2)NC(=O)[C@H](C(C)C)NC(=O)[C@@H]2CSSC[C@H](NC(=O)[C@H](CCCNC(=N)N)NC(=O)[C@H](CCCNC(=N)N)NC(=O)[C@H](Cc3ccc(O)cc3)NC(=O)[C@H](CCCNC(=N)N)NC(=O)[C@H](C(C)C)NC1=O)C(=O)N[C@@H](Cc1c[nH]c3ccccc13)C(=O)N[C@@H](CCCNC(=N)N)C(=O)N[C@@H](Cc1c[nH]c3ccccc13)C(=O)N2 [ARcycl] (HELM PEPTIDE1{R.W.C.V.Y.A.Y.V.R.V.R.G.V.L.V.R.Y.R.R.C.W}$PEPTIDE1,PEPTIDE1,3:R3-20:R3|PEPTIDE1,PEPTIDE1,1:R1-21:R2$$$V2.0)	2	2		2	1	2	4	2	4	2	4	4		16.2	improved capacity to permeabilize the outer membrane
